# According to patent US7687609B2, “Galectin-glycosaminoglycan complex and method for controlling galectin activity” (National Institute of Advanced Industrial Science and …, priority 2006, dated 2010):
# Entries after “also recorded” stand apart in the source; their conditions may differ.
# Legend:
# Assay type in all cases: binding
# Galectin-1 = molecular target: T1, Galectin-1 (Homo sapiens, UniProt P09382); assay: FAC affinity test on galectin-immobilized column; conditions: for V − V0 Value: pyridyl-aminated carbohydrate, galectin-1 immobilized 0.8 mg/ml, less than 5 μl = below interaction detection limit; for binding to galectin-1 (in words): text statement on the FAC results
# T1 construct: made in house
# Procedure: (§1) Various galectin molecules-immobilized columns were prepared by the method described by Nakamura S, Yagi F, Totani K, Ito γ and Hirabayashi J in FEBS J., 272, 2784-2799 (2005), using NHS Sepharose (manufactured by Amersham Bioscience) as the carrier for immobilizing galectin molecules and in accordance with the instructions attached thereto (put in parentheses is immobilization concentration, mg galectin/ml carrier).
# (§2) Each galectin molecule was immobilized onto the carrier at the following concentration; galectin-1 (0.8 mg/ml), galectin-3 (0.5 mg/ml), galectin-8N (3.6 mg/ml), galectin-8C (4.0 mg/ml), galectin-9N (3.6 mg/ml), galectin-9C (3.0 mg/ml). The carrier on which each galectin was immobilized was charged into a stainless steel miniature column (2 mm in inner diameter, 10 mm in length; manufactured by Shimadzu Corp.).
# (§3) A high performance liquid chromatography (HPLC) system was equipped with a galectin molecule-immobilized column, and the test was carried out by the method described in Nakamura S, Yagi F, Totani K, Ito γ and Hirabayashi J in FEBS J., 272, 2784-2799 (2005).
# (§4) As the negative control sample, pyridyl-aminated N-acetylglucosamine (PA-GlcNAc, manufactured by Takara Bio, pyridyl-aminated glycosaminoglycan-oligosaccharide sample control) or pyridyl-aminated pullulan (prepared by carrying out pyridylamination of standard pullulan manufactured by Shodex, pyridyl-aminated glycosaminoglycan polysaccharide sample control) was used, and a V−V0 value was calculated from their eluate volume (V0 value) measured by fluorescence detection and the eluate volume (V value) of the sample, namely pyridyl-aminated glycosaminoglycan carbohydrate, and this was used as the index of interaction strength (Protein, Nucleic Acid and Enzyme, 48(8), 1206-1212 (2003)).
# (§5) V−V0 values of pyridyl-aminated glycosaminoglycans (HA, CH, DN, NAH, CSA, CSB, CSC, CSD, CSE, KS-I and KS-II) were calculated based on PA-GlcNAc, and V−V0 values of pyridyl-aminated glycosaminoglycan-oligosaccharides (G2K1, G1L1, G4L4, L2L2, L2L4, L4L4, SL2L4 and CH3 to CH12) based on pyridyl-aminated pullulan, respectively.
# (§6) In this connection, when the calculated value of the V−V0 value was less than 5 μl, it was regarded as less than the interaction detection limit in this example.
# Galectin-3 = molecular target: T2, Galectin-3 (Homo sapiens, UniProt P17931); assay: FAC affinity test on galectin-immobilized column; conditions: for V − V0 Value: pyridyl-aminated carbohydrate, galectin-3 immobilized 0.5 mg/ml, less than 5 μl = below interaction detection limit; for binding to galectin-3 (in words): text statement on the FAC results
# T2 construct: made in house
# Procedure: as §1, §2, §3, §4, §5, §6
# Galectin-8C = molecular target: T3, Galectin-8C (Homo sapiens, UniProt O00214); assay: FAC affinity test on galectin-immobilized column; conditions: pyridyl-aminated carbohydrate; galectin-8C immobilized 4.0 mg/ml; less than 5 μl = below interaction detection limit
# T3 construct: N and C respectively represent N-terminal side carbohydrate-recognition domain and C-terminal side carbohydrate-recognition domain; made in house
# T3 sequence (O00214 187-317 limits assumed): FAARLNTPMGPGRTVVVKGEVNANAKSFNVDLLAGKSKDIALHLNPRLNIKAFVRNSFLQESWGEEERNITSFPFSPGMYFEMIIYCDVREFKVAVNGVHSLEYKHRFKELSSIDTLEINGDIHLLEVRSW
# Procedure: as §1, §2, §3, §4, §5, §6
# Galectin-8N = molecular target: T4, Galectin-8N (Homo sapiens, UniProt O00214); assay: FAC affinity test on galectin-immobilized column; conditions: for V − V0 Value: pyridyl-aminated carbohydrate, galectin-8N immobilized 3.6 mg/ml, less than 5 μl = below interaction detection limit
# T4 construct: N and C respectively represent N-terminal side carbohydrate-recognition domain and C-terminal side carbohydrate-recognition domain; made in house
# T4 sequence (O00214 19-152 limits assumed): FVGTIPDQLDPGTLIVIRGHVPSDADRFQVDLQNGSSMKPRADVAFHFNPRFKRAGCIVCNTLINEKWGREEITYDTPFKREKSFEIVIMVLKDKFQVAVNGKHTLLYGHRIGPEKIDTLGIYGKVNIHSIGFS
# Procedure: as §1, §2, §3, §4, §5, §6
# Galectin-9C = molecular target: T5, Galectin-9C (Homo sapiens, UniProt O00182); assay: FAC affinity test on galectin-immobilized column; conditions: for V − V0 Value: pyridyl-aminated carbohydrate, galectin-9C immobilized 3.0 mg/ml, less than 5 μl = below interaction detection limit; for binding to galectin-9C (in words): text statement on the FAC results
# T5 construct: N and C respectively represent N-terminal side carbohydrate-recognition domain and C-terminal side carbohydrate-recognition domain; made in house
# Procedure: as §1, §2, §3, §4, §5, §6
# Galectin-9N = molecular target: T6, Galectin-9N (Homo sapiens, UniProt O00182); assay: FAC affinity test on galectin-immobilized column; conditions: for V − V0 Value: pyridyl-aminated carbohydrate, galectin-9N immobilized 3.6 mg/ml, less than 5 μl = below interaction detection limit; for binding to galectin-9N (in words): text statement on the FAC results
# T6 construct: N and C respectively represent N-terminal side carbohydrate-recognition domain and C-terminal side carbohydrate-recognition domain; made in house
# Procedure: as §1, §2, §3, §4, §5, §6
# [1] = test system: tested galectin molecules (galectin-1, 3, 8N, 8C, 9N and 9C); assay: FAC affinity test, statements on the whole panel of tested galectins; conditions: Table 3, whole galectin panel
# Text: Using FAC, the present inventors have conducted a comprehensive analysis of the interactions between various galectin molecules (galectin-1, 3, 8N, 8C, 9N and 9C; N and C respectively represent N-terminal side carbohydrate-recognition domain and C-terminal side carbohydrate-recognition domain)-immobilized columns and various fluorescence-labeled glycosaminoglycan molecules. As a result, novel affinity was found by the combination of specific galectin molecules and glycosaminoglycan molecules to thereby accomplish the present invention.
# as §3, §4, §6
# T1 sequence (P09382 whole entry): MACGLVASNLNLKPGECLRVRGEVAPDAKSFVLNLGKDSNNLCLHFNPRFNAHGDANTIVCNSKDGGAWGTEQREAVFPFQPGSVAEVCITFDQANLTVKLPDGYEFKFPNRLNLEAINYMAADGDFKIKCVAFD
# T5 sequence (O00182 227-355 limits assumed): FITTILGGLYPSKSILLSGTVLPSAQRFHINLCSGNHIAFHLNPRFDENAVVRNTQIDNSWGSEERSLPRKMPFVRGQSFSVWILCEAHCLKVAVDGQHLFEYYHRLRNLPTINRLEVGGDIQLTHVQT
# T6 sequence (O00182 17-148 limits assumed): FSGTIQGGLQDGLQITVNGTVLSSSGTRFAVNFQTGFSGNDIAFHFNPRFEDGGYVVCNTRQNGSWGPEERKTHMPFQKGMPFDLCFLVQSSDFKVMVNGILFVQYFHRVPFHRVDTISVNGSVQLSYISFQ
# T2 sequence (P17931 whole entry): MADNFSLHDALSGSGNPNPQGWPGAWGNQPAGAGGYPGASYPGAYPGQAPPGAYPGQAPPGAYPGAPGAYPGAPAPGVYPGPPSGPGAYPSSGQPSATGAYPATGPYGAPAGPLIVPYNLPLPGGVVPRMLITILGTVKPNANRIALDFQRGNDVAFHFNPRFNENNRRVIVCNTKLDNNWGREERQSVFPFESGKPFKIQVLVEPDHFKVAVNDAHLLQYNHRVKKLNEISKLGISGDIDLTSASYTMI
Compound,V − V0 Value (Galectin-1) [µL],V − V0 Value (Galectin-3) [µL],V − V0 Value (Galectin-8C) [µL],V − V0 Value (Galectin-8N) [µL],V − V0 Value (Galectin-9C) [µL],V − V0 Value (Galectin-9N) [µL],binding to the tested galectin molecules (in words) [1],binding to galectin-3 (in words) (Galectin-3),binding to galectin-3 (in words) (Galectin-3; listed as chondroitin),binding to galectin-9N (in words) (Galectin-9N),binding to galectin-9N (in words) (Galectin-9N; listed as chondroitin),binding to galectin-1 (in words) (Galectin-1),binding to galectin-9C (in words) (Galectin-9C),binding to galectin-8N (in words) (Galectin-8N; text statement on the FAC results)
"CC(=O)N[C@H]1[C@H](O[C@H]2[C@@H](O)[C@@H](COS(=O)(=O)O)O[C@@H](O[C@H]3[C@H](O)[C@@H](NC(C)=O)C(O)O[C@@H]3COS(=O)(=O)O)[C@@H]2O)O[C@H](COS(=O)(=O)O)[C@@H](O)[C@@H]1O (stereo partly drawn) [G4L4, GlcNAc6S β1-3 Gal6S β1-4 GlcNAc6S]",<5.0,<5.0,<5.0,<5.0,<5.0,<5.0,did not bind,,,,,,,
Chondroitin,<5.0,19.2 ± 2.2,<5.0,<5.0,<5.0,171.4 ± 19.0,,bind,length-dependent binding affinity,bind,particularly strong binding affinity,,,
"CC(=O)N[C@H]1[C@H](O[C@H]2[C@@H](O)[C@@H](CO)OC(O)[C@@H]2O)O[C@H](CO)[C@@H](O[C@@H]2O[C@H](CO)[C@H](O)[C@H](O)[C@H]2O)[C@@H]1O (stereo partly drawn) [G2K1, Gal β1-4 GlcNAc β1-3 Gal]",21.8 ± 1.9,11.6 ± 0.1,<5.0,<5.0,6.7 ± 0.2,5.1 ± 1.3,bound to various galectin molecules,showed binding affinity,,showed binding affinity,,showed binding affinity,showed binding affinity,
"CC(=O)N[C@H]1[C@H](O[C@H]2[C@H](O)[C@@H](O)[C@H](O[C@H]3[C@@H](O)[C@@H](CO)OC(O)[C@@H]3NC(C)=O)O[C@@H]2C(=O)O)O[C@H](CO)[C@H](O)[C@@H]1O (stereo partly drawn) [CH3, GalNAc β1-4 GlcA β1-3 GalNAc]",<5.0,<5.0,,,,49.6 ± 8.2,,,,,,,,
cornea type keratan sulfate [KS-I],10.3 ± 4.5,21.7 ± 4.3,<5.0,<5.0,12.2 ± 1.0,105.3 ± 22.6,,bound; also recorded: showed binding affinity,,bound; also recorded: showed binding affinity,,bound; also recorded: showed binding affinity,bound; also recorded: showed binding affinity,showed binding affinity
"CC(=O)N[C@H]1[C@H](O[C@H]2[C@H](O)[C@@H](O)[C@H](O[C@H]3[C@@H](O)[C@@H](CO)O[C@@H](O[C@H]4[C@H](O)[C@@H](O)[C@H](O[C@H]5[C@@H](O)[C@@H](CO)O[C@@H](O[C@H]6[C@H](O)[C@@H](O)[C@H](O[C@H]7[C@@H](O)[C@@H](CO)OC(O)[C@@H]7NC(C)=O)O[C@@H]6C(=O)O)[C@@H]5NC(C)=O)O[C@@H]4C(=O)O)[C@@H]3NC(C)=O)O[C@@H]2C(=O)O)O[C@H](CO)[C@H](O)[C@@H]1O[C@@H]1O[C@H](C(=O)O)[C@@H](O)[C@H](O)[C@H]1O (stereo partly drawn) [CH8, GlcA β1-3 (GalNAc β1-4 GlcA β1-3)3 GalNAc]",<5.0,7.8 ± 1.9,,,<5.0,116.2,,,,,,,,
"CC(=O)N[C@H]1[C@H](O[C@H]2[C@H](O)[C@@H](O)[C@H](O[C@H]3[C@@H](O)[C@@H](CO)O[C@@H](O[C@H]4[C@H](O)[C@@H](O)[C@H](O[C@H]5[C@@H](O)[C@@H](CO)O[C@@H](O[C@H]6[C@H](O)[C@@H](O)[C@H](O[C@H]7[C@@H](O)[C@@H](CO)OC(O)[C@@H]7NC(C)=O)O[C@@H]6C(=O)O)[C@@H]5NC(C)=O)O[C@@H]4C(=O)O)[C@@H]3NC(C)=O)O[C@@H]2C(=O)O)O[C@H](CO)[C@H](O)[C@@H]1O (stereo partly drawn) [CH7, (GalNAc β1-4 GlcA β1-3)3 GalNAc]",<5.0,10.7 ± 1.9,,,<5.0,146.4,,,,,,,,
"CC(=O)N[C@H]1[C@H](O[C@H]2[C@H](O)[C@@H](O)[C@H](O[C@H]3[C@@H](O)[C@@H](CO)O[C@@H](O[C@H]4[C@H](O)[C@@H](O)[C@H](O[C@H]5[C@@H](O)[C@@H](CO)OC(O)[C@@H]5NC(C)=O)O[C@@H]4C(=O)O)[C@@H]3NC(C)=O)O[C@@H]2C(=O)O)O[C@H](CO)[C@H](O)[C@@H]1O (stereo partly drawn) [CH5, (GalNAc β1-4 GlcA β1-3)2 GalNAc]",<5.0,<5.0,,,,45.6 ± 4.6,,,,,,,,
cartilage type keratan sulfate [KS-II],<5.0,10.1 ± 1.1,<5.0,<5.0,6.4 ± 1.0,10.4 ± 0.3,,weaker than their binding with KS-I; also recorded: showed binding affinity,,weaker than their binding with KS-I; also recorded: showed binding affinity,,,weaker than their binding with KS-I; also recorded: showed binding affinity,
"CC(=O)NC1C(O)OC(CO)C(O)C1OC1OC(C(=O)O)C(OC2OC(CO)C(O)C(OC3OC(C(=O)O)C(OC4OC(CO)C(O)C(OC5OC(C(=O)O)C(OC6OC(CO)C(O)C(OC7OC(C(=O)O)C(OC8OC(CO)C(O)C(OC9OC(C(=O)O)C(OC%10OC(CO)C(O)C(OC%11OC(C(=O)O)C(O)C(O)C%11O)C%10NC(C)=O)C(O)C9O)C8NC(C)=O)C(O)C7O)C6NC(C)=O)C(O)C5O)C4NC(C)=O)C(O)C3O)C2NC(C)=O)C(O)C1O (stereo not drawn) [CH12, GlcA β1-3 (GalNAc β1-4 GlcA β1-3)5 GalNAc]",,16.8 ± 2.1,,,,196.0,,,,,,,,
"CC(=O)NC1C(OC2C(C(=O)O)OC(OC3C(O)C(CO)OC(OC4C(C(=O)O)OC(OC5C(O)C(CO)OC(OC6C(C(=O)O)OC(OC7C(O)C(CO)OC(OC8C(C(=O)O)OC(OC9C(O)C(CO)OC(O)C9NC(C)=O)C(O)C8O)C7NC(C)=O)C(O)C6O)C5NC(C)=O)C(O)C4O)C3NC(C)=O)C(O)C2O)OC(CO)C(O)C1O (stereo not drawn) [CH9, (GalNAc β1-4 GlcA β1-3)4 GalNAc]",<5.0,15.6 ± 2.5,,,<5.0,199.4,,,,,,,,
"CC(=O)NC1C(OC2C(C(=O)O)OC(OC3C(O)C(CO)OC(OC4C(C(=O)O)OC(OC5C(O)C(CO)OC(OC6C(C(=O)O)OC(OC7C(O)C(CO)OC(OC8C(C(=O)O)OC(OC9C(O)C(CO)OC(OC%10C(C(=O)O)OC(OC%11C(O)C(CO)OC(O)C%11NC(C)=O)C(O)C%10O)C9NC(C)=O)C(O)C8O)C7NC(C)=O)C(O)C6O)C5NC(C)=O)C(O)C4O)C3NC(C)=O)C(O)C2O)OC(CO)C(O)C1O (stereo not drawn) [CH11, (GalNAc β1-4 GlcA β1-3)5 GalNAc]",,21.4 ± 4.2,,,,218.8,,,,,,,,
